Values quoted from earlier work as cited in publication PMC3079564 (Chemical biology & drug design, 2011).

Key:
[1] = test system: recombinant HIV-1 carrying HIV-1YU2 envelope glycoproteins on Cf2Th-CCR5 cells lacking CD4
[2] = test system: gp120 from the YU2 strain

In the case of `CC1(C)CC(NC(=O)C(=O)Nc2ccc(Cl)cc2)CC(C)(C)N1` [NBD-556], the “enhancement of viral infectivity in CD4 negative cells” value [1] is listed as “three orders of magnitude”, the “-TΔS of binding to gp120” value ([2]; 25 °C) is listed as 17.1 kcal/mol and the “ΔH of binding to gp120” value ([2]; 25 °C) is listed as -24.5 kcal/mol. The “measured heat capacity change on binding to gp120” value ([2]; NBD-556) was -1.0 kcal/(K × mol).
